We go through eight molecules from ChEMBL document CHEMBL1201862, “PubChem BioAssay data set” (2004).

Molecules are shown by their SMILES.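 Following 48 hours of exposure in 96-well plates, responses at five concentrations were used to interpolate endpoints linearly. GI50 is the concentration that inhibits growth by half.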 The source made the active and inactive calls. Rule as the data show it: active = GI50 up to about 1.1 µM and inactive = higher.

Holding throughout (assay): NCI anticancer screen, dose series, 48 h
In experiment [1] the test system is ACHN.
Experiment [2] has as its system CCRF-CEM.
In experiment [3] the test system is EKVX.
In experiment [4] the test system is HCT-116.
Experiment [5] has as its system HOP-62.
Experiment [6] has as its system HT-29.
Experiment [7] deals with Hs-578T.
In experiment [8] the test system is K562.
Experiment [9] deals with M14.
Experiment [10] deals with MDA-MB-435.
The test system of experiment [11] is Malme-3M.
Experiment [12] relates to NCI-H23.
For experiment [13], the system named is NCI-H522.
Experiment [14] concerns NCI/ADR-RES.
The subject of experiment [15] is SK-MEL-2.
Experiment [16] concerns SN12C.
Experiment [17] relates to SNB-75.
Experiment [18] relates to SR.
Experiment [19] concerns TK-10.

In the case of `OCCN1CCN(c2nc(N3CCCC3)c3nc(Cl)c(NCc4ccccc4)nc3n2)CC1`, the GI50 in experiment [1] was 7.8 µM (inactive); in experiment [2] it was 3.8 µM (inactive); in [3], 11.3 µM (inactive); in experiment [4], 5.6 µM (inactive); in experiment [5], 3.58 µM (inactive); in experiment [6], 3.18 µM (inactive). For the same molecule, the GI50 in experiment [7] was 8.61 µM (inactive); in [8], 2.54 µM (inactive); in experiment [9] it was 3.03 µM (inactive); in experiment [10], 3.98 µM (inactive); in experiment [11], 6.56 µM (inactive); in experiment [12] it was 14.5 µM (inactive). Moreover, the GI50 in experiment [13] is 5.04 µM (inactive); in experiment [14] it was 10.9 µM (inactive); in experiment [15], 6.92 µM (inactive); in experiment [16], 10.4 µM (inactive); in [17] it was 3.27 µM (inactive); in experiment [18], 2.54 µM (inactive). Further, the GI50 in experiment [19] was 6.85 µM (inactive).

For `CCOc1cccc(-c2cc(O)c3cc4c(cc3n2)OCO4)c1`, the GI50 in experiment [1] was 0.51 µM (active); in experiment [2] it was 0.084 µM (active); in [3] it was 10.5 µM (inactive); in experiment [4] it was 0.0942 µM (active); in experiment [5], 0.621 µM (active); in [6] it was 0.221 µM (active). The GI50 was 0.163 µM (active) in experiment [7]; 0.0516 µM (active) in experiment [8]; 0.371 µM (active) in experiment [9]; 0.0164 µM (active) in experiment [10]; 0.141 µM (active) in [11]; 0.396 µM (active) in experiment [12]. Moreover, the GI50 in experiment [13] is 0.0914 µM (active); in experiment [14], 0.0828 µM (active); in [15], 0.191 µM (active); in [16] it was 0.191 µM (active); in experiment [17] it was 0.0948 µM (active); in [18], 0.0476 µM (active). Besides, the GI50 in experiment [19] was 0.421 µM (active).

As to `CCOC(=O)c1ccc(NC(=O)O/N=C(/Cl)C(C)C)cc1`, the GI50 in experiment [1] was 14 µM (inactive); in experiment [2], 0.953 µM (active); in experiment [3] it was 14.9 µM (inactive); in [4], 8.05 µM (inactive); in [5], 17 µM (inactive); in [6] it was 20.7 µM (inactive). The GI50 in [7] was 29.5 µM (inactive); in experiment [8] it was 1.56 µM (inactive); in experiment [9], 1.16 µM (inactive); in experiment [10] it was 16 µM (inactive); in experiment [11], 3.76 µM (inactive); in experiment [12], 20 µM (inactive). The GI50 in experiment [13] was 2.07 µM (inactive); in experiment [14] it was 19 µM (inactive); in experiment [15] it was 15.1 µM (inactive); in [16], 19.9 µM (inactive); in [17], 12.9 µM (inactive); in experiment [18] it was 2.87 µM (inactive). Besides, in experiment [19], the GI50 was 16.4 µM (inactive).

Consider `Cc1cc(C)c2c(n1)S(=O)(=O)N(CCCN1CCN(c3cccc(C(F)(F)F)c3)CC1)c1c-2nn(C)c1C`, for which the GI50 was > 100 µM (inactive) in experiment [1]; 66.7 µM (inactive) in [2]; > 100 µM (inactive) in experiment [3]; 61.8 µM (inactive) in experiment [4]; > 100 µM (inactive) in [5]; 16.6 µM (inactive) in experiment [6]. For the same molecule, the GI50 was > 100 µM (inactive) in [7]; 30.3 µM (inactive) in experiment [8]; 43.9 µM (inactive) in [9]; 40.5 µM (inactive) in [10]; > 100 µM (inactive) in experiment [11]; 61.2 µM (inactive) in [12]. In addition, the GI50 in [13] is 57.4 µM (inactive); in experiment [14], 53.3 µM (inactive); in [15] it was > 100 µM (inactive); in experiment [16] it was 97.5 µM (inactive); in experiment [17] it was > 100 µM (inactive); in experiment [18] it was 19.4 µM (inactive). In addition, the GI50 in [19] was > 100 µM (inactive).

For `CCOC(=O)c1ccc(Nc2nc3ccccc3n3cccc23)cc1`, the GI50 in experiment [1] is 72.8 µM (inactive); in experiment [2], 0.0217 µM (active); in experiment [3] it was 31.3 µM (inactive); in experiment [4], > 100 µM (inactive); in [5], 25.7 µM (inactive); in [6] it was 36.7 µM (inactive). Further, the GI50 in experiment [7] was 42.9 µM (inactive); in experiment [8], 29.8 µM (inactive); in [9] it was > 100 µM (inactive); in experiment [10], 3.27 µM (inactive); in experiment [11], > 100 µM (inactive); in experiment [12], 63.8 µM (inactive). Moreover, the GI50 is 88.1 µM (inactive) in experiment [13]; 38.1 µM (inactive) in experiment [14]; 34.6 µM (inactive) in experiment [15]; 12.8 µM (inactive) in [16]; 22.2 µM (inactive) in [17]; 8.97 µM (inactive) in [18]. Moreover, the GI50 in [19] was 34.8 µM (inactive).

With `CCCCON1C[C@H](OC(C)=O)C(OC(C)=O)[C@H](OC(C)=O)C1` (some centres not stated), the GI50 in [1], in [2], in experiment [3], in experiment [4], in [5] and in experiment [6] was > 100 µM (inactive) in each case. Besides, the GI50 in [7], in experiment [8], in experiment [9], in experiment [10], in experiment [11] and in [12] was > 100 µM (inactive) each time. Further, the GI50 in experiment [13], in [14], in experiment [15], in [16], in experiment [17] and in experiment [18] was > 100 µM (inactive) throughout. For the same molecule, in experiment [19], the GI50 is > 100 µM (inactive).

Consider `O=C1OC(c2ccc(O)c(-c3ccccc3)c2)(c2ccc(O)c(-c3ccccc3)c2)c2c(Cl)c(Cl)c(Cl)c(Cl)c21`, for which the GI50 in experiment [1], in experiment [2], in [3], in experiment [4], in experiment [5] and in experiment [6] was > 100 µM (inactive) throughout. Moreover, the GI50 in experiment [7], in experiment [8], in experiment [9], in experiment [10], in [11] and in experiment [12] was > 100 µM (inactive) in each case. Further, the GI50 in [13], in [14], in experiment [15], in [16], in [17] and in [18] was > 100 µM (inactive) each time. Besides, the GI50 in experiment [19] was > 100 µM (inactive).

Take `C=CC[C@@]1([C@H](C=C)COCc2ccc(OC)cc2)CC[C@]2(C)OC(C)(C)[C@@H](c3ccccc3)N2C1=S`: the GI50 in [1] is 43 µM (inactive); in [2], 46.5 µM (inactive); in experiment [3], 26.2 µM (inactive); in experiment [4], 35.9 µM (inactive); in experiment [5], 71.8 µM (inactive); in [6], 29 µM (inactive). Besides, the GI50 in experiment [7] is 52.2 µM (inactive); in [8] it was 27.4 µM (inactive); in [9] it was 35.3 µM (inactive); in experiment [10], > 100 µM (inactive); in [11], 37.6 µM (inactive); in experiment [12], 40.4 µM (inactive). Also, the GI50 in experiment [13] is 20.9 µM (inactive); in [14], > 100 µM (inactive); in experiment [15], 23.5 µM (inactive); in experiment [16], 62.1 µM (inactive); in experiment [17] it was 60.1 µM (inactive); in experiment [18], 73.5 µM (inactive). Besides, the GI50 in experiment [19] was 52.7 µM (inactive).
